Source: patent publication US20250127844A1, “PEPTIDE HAVING HAIR LOSS PREVENTION OR HAIR GROWTH PROMOTION ACTIVITY AND USE THEREOF” (CAREGEN CO., LTD., priority 2021, published 2025)

Legend:
[1] = test system: Keratin 19; assay: RT-PCR of Keratin 19 expression in HHORSC; type: cell-based, human; details: peptide 500 nM, 5 μM, 50 μM, 72 hours, vs untreated control, FIG. 6
Method: (§1) Specifically, HHORSC (human hair outer root sheath cell, Sciencell, USA) was seeded in a 6-well culture plate at 4×10^5 cells/well and then cultured in MSC complete medium (mesenchymal stem cell complete media) for 24 hours. Next, the medium was replaced with serum free MSC complete medium and cultured again for 24 hours. Then, the HHORSC was treated with the peptide of SEQ ID NO: 1 prepared in the Preparation Example at concentrations of 500 nM, 5 μM, and 50 μM, respectively, and cultured at 37° C. for 72 hours. As a positive control, EGF was treated at a concentration of 50 nM, and as a negative control, HHORSC without any treatment was used. After washing with PBS, RNA was isolated by treating with 300 μ ? of easy blue (intron, Korea). Then, cDNA was synthesized using a cDNA synthesis kit (enzynomics, Korea) by quantification using nano drop, and PCR was performed using primers for Ha3-II, Keratin 14, and Keratin 19 (base sequences of primer are listed in Table 3 below) and PCR premix (enzynomics, Korea). Electrophoresis was performed on a 1.5% agarose gel, and the mRNAs of Ha3-II, Keratin 14, and Keratin 19 were detected using a band analysis system (Bio-Rad gel image system).

[2] = test system: LEF-1; assay: RT-PCR of LEF-1 expression in HHFDPC; type: cell-based, human; details: peptide 500 nM, 5 μM, 50 μM, 24 hours, vs untreated control, FIG. 4
Method: (§2) Furthermore, in order to determine whether the β-catenin moves to the nucleus and is activated to affect proliferation and differentiation, whether the expression of LEF-1, c-Myc and cyclin D1 (cyclin D1), which act as downstream factors, increases with β-catenin activation was confirmed through RT-PCR. Specifically, in the same manner as the previous Western blotting experiment, HHFDPC cells were cultured, treated with the peptides of the Preparation Example of the present invention at concentrations of 500 nM, 5 μM, and 50 μM, respectively, and cultured at 37° C. for 24 hours. After washing the cells with PBS, RNA was isolated by treating them with 300 μ ? of easy blue (intron, Korea). Then, cDNA was synthesized using a cDNA synthesis kit (enzynomics, Korea) by quantifying it with nano drop, and PCR was performed using primers for LEF-1, c-Myc and cyclin D1 (base sequences of the primer are listed in Table 2 below) and PCR premix (enzynomics, Korea). Electrophoresis was performed on a 1.5% agarose gel, and then the mRNA of LEF-1, c-Myc, c-Myc and cyclin D1 was detected using a band analysis system (Bio-Rad gel image system).

[3] = test system: MSX2; assay: RT-PCR of MSX2 expression in HHGMC; type: cell-based, human; details: peptide 500 nM, 5 μM, 50 μM, 72 hours, vs untreated control, FIG. 7
Method: Specifically, HHGMC (human hair germinal matrix cell, Sciencell, USA) was seeded in a 6-well culture plate at 4×10^5 cells/well and then cultured in MSC complete medium (mesenchymal stem cell complete media) for 24 hours. Next, the medium was replaced with serum free MSC complete medium and cultured again for 24 hours. Then, the HHGMC was treated with the peptide of SEQ ID NO: 1 prepared in the Preparation Example at concentrations of 500 nM, 5 μM, and 50 μM, respectively, and cultured at 37° C. for 72 hours. As a positive control, EGF was treated at a concentration of 50 nM, and as a negative control, HHGMC without any treatment was used. After washing with PBS, RNA was isolated by treating with 300 μ ? of easy blue (intron, Korea). Next, cDNA was synthesized using a cDNA synthesis kit (enzynomics, Korea) by quantification using nano drop, and PCR was performed using primers for MSX2 (base sequences of primer are listed in Table 4 below) and PCR premix (enzynomics, Korea). Electrophoresis was performed on a 1.5% agarose gel, and MSX2 mRNA was detected using a band analysis system (Bio-Rad gel image system).

[4] = test system: DKK-1 protein; assay: Western blotting of DKK-1 protein in DHT-treated HHFDPC; type: cell-based, human; details: HHFDPC with DHT 100 nM, peptide 500 nM, 5 μM, 50 μM, 24 hours, vs DHT-only negative control, FIG. 5
Method: DKK-1 protein (dickkopf-related protein 1) is a hair loss-related protein known to be highly expressed in individuals with hair loss, especially male pattern hair loss, and its expression is known to be promoted by hormones such as DHT (Dihydrotestosterone). Accordingly, the expression of DKK-1 protein was induced by treating HHFDPC cells with DHT together with the peptide according to the Preparation Example of the present invention, and then the expression level of DKK-1 was measured through Western blotting to determine whether there was an effect of suppressing the expression of DKK-1 protein.
Specifically, HHFDPC as in [Experiment Example 1-1] was seeded in a 6-well culture plate at 4×10^5 cells/well and then cultured in MSC complete medium (mesenchymal stem cell complete media) for 24 hours. Next, the medium was replaced with serum free MSC complete medium and cultured again for 24 hours. In addition, the HHFDPC was treated with the peptide of SEQ ID NO: 1 prepared in the Preparation Example at concentrations of 500 nM, 5 μM, and 50 μM, respectively, and at this time, DHT, an expression inducer of DKK-1 protein, was simultaneously treated at a concentration of 100 nM and then cultured at 37° C. for 24 hours. […] After washing again with 0.1% PBS-T (0.1% Tween-20 in PBS) three times for 15 minutes each, DKK-1 protein was detected by treatment with ECL solution (GE Healthcare, USA).

[5] = test system: Ha3-II; assay: RT-PCR of Ha3-II expression in HHORSC; type: cell-based, human; details: peptide 500 nM, 5 μM, 50 μM, 72 hours, vs untreated control, FIG. 6
Method: as §1

[6] = test system: Keratin 14; assay: RT-PCR of Keratin 14 expression in HHORSC; type: cell-based, human; details: peptide 500 nM, 5 μM, 50 μM, 72 hours, vs untreated control, FIG. 6
Method: as §1

[7] = test system: cyclin D1; assay: RT-PCR of cyclin D1 expression in HHFDPC; type: cell-based, human; details: peptide 500 nM, 5 μM, 50 μM, 24 hours, vs untreated control, FIG. 4
Method: as §2

[8] = test system: p-ERK; assay: Western blotting of phosphorylated ERK in HHFDPC; type: cell-based, human; details: peptide 500 nM, 5 μM, 50 μM, 24 hours, vs untreated control, FIG. 2
Method: (§3) First, phosphorylated forms of AKT and ERK, which act as signaling molecules related to the proliferation of HHFDPC, were confirmed through Western blotting. Specifically, HHFDPC as in [Experiment Example 1-1] above was seeded at 4×10^5 cells/well in a 6-well culture plate, cultured in MSC complete medium (mesenchymal stem cell complete media) for 24 hours, and then the medium was replaced with serum free MSC complete medium and cultured for another 24 hours. Then, the HHFDPC was treated with the peptide of SEQ ID NO: 1 prepared in the Preparation Example at concentrations of 500 nM, 5 μM, and 50 μM, respectively, and cultured at 37° C. for 24 hours. As a positive control, minoxidil was treated at a concentration of 1 μM, and as a negative control, HHFDPC without any treatment was used. Then, Western blotting was performed to detect phosphorylated AKT and phosphorylated ERK. After washing with PBS, the cells were treated with 100 μ ? of lysis buffer to destroy cells, thereby obtaining cell lysate. After electrophoresis using a 10% SDS-PAGE gel, it was transferred to a PVDF membrane and blocked using 5% skim milk at room temperature for 30 minutes. […] After washing again with 0.1% PBS-T (0.1% Tween-20 in PBS) three times for 15 minutes each, p-AKT and p-ERK were detected by treatment with ECL solution (GE Healthcare, USA).

[9] = test system: β-catenin; assay: Western blotting of β-catenin moved to the nucleus in HHFDPC; type: cell-based, human; details: HHFDPC nuclear protein, peptide 500 nM, 5 μM, 50 μM, 24 hours, vs untreated control, FIG. 3
Method: In addition, in addition to p-AKT and p-ERK, in order to confirm the activation of β-catenin, which is known to affect cell proliferation and differentiation, whether β-catenin moved into the nucleus was confirmed through Western blotting. Specifically, the HHFDPC as in [Experiment Example 1-1] was seeded in a 6-well culture plate at an amount of 4×10^5 cells/well, cultured in MSC complete medium (mesenchymal stem cell complete media) for 24 hours. Next, the medium was replaced with serum free MSC complete medium and cultured again for 24 hours. Then, the HHFDPC was treated with the peptide of SEQ ID NO: 1 prepared in the Preparation Example at concentrations of 500 nM, 5 μM, and 50 μM, respectively, and cultured at 37° C. for 24 hours. As a positive control, minoxidil was treated at a concentration of 1 μM, and as a negative control, HHFDPC without any treatment was used. After washing with PBS, proteins in the nucleus were isolated using a nuclear protein extraction kit (Thermo scientific, USA). After electrophoresis using a 10% SDS-PAGE gel, it was transferred to a PVDF membrane and blocked using 5% skim milk at room temperature for 30 minutes. […] After washing again with 0.1% PBS-T (0.1% Tween-20 in PBS) three times for 15 minutes each, β-catenin was detected by treatment with ECL solution (GE Healthcare, USA).

[10] = test system: c-Myc; assay: RT-PCR of c-Myc expression in HHFDPC; type: cell-based, human; details: peptide 500 nM, 5 μM, 50 μM, 24 hours, vs untreated control, FIG. 4
Method: as §2

[11] = test system: p-AKT; assay: Western blotting of phosphorylated AKT in HHFDPC; type: cell-based, human; details: peptide 500 nM, 5 μM, 50 μM, 24 hours, vs untreated control, FIG. 2
Method: as §3

[12] = test system: human hair follicle dermal papilla cells (HHFDPC); assay: MTT proliferation of dermal papilla cells; type: cell-based; details: peptide 500 nM, 5 μM, 50 μM, 72 hours, vs untreated control, FIG. 1
Method: While culturing human hair follicle dermal papilla cells (HHFDPC), the absorbance was measured after treatment with the peptide of the present invention to confirm whether there was an effect of promoting the proliferation of the HHFDPC dermal papilla cells.
Specifically, HHFDPC (Sciencell, USA) was seeded at 4×10^3 cells/well in a 96-well culture plate, cultured in MSC complete medium (mesenchymal stem cell complete media, Sciencell, USA) for 24 hours, and then the medium was replaced with serum free MSC complete medium and cultured for another 24 hours. Then, the HHFDPC was treated with the peptide of SEQ ID NO: 1 prepared in the Preparation Example at concentrations of 500 nM, 5 μM, and 50 μM, respectively, and cultured at 37° C. for 72 hours. As a positive control, minoxidil was treated at a concentration of 1 μM, and as a negative control, HHFDPC without any treatment was used. Then, 10 μ ? of 5 mg/mL MTT solution was added and cultured in a 37° C. CO2 incubator for 4 hours to stain the cells. After removing the medium, the cells were treated with 100 μl of DMSO and shaken for 10 minutes, and the number of HHFDPC cells was confirmed by measuring absorbance at a wavelength of 540 nm using a spectrophotometer.

“QHNQIRYFEE [peptide of the present invention]” was tested, and the “Keratin 19 mRNA” value [1] was “the amount of mRNA increased further”, the “LEF-1 mRNA” value [2] was “the amount of mRNA increased further” and the “MSX2 mRNA” value [3] was “the amount of mRNA increased further”. The “amount of DKK-1 protein” value [4] was “the amount of DKK-1 protein was found to be reduced”, the “Ha3-II mRNA” value [5] was “the amount of mRNA increased further” and the “Keratin 14 mRNA” value [6] was “the amount of mRNA increased further”. For the same sequence, the “cyclin D1 mRNA” value [7] was “the amount of mRNA increased further”, the “phosphorylated ERK (p-ERK)” value [8] was “phosphorylation was found to be increased” and the “β-catenin moved to the nucleus” value [9] was “migration due to activation of β-catenin increased”. The “c-Myc mRNA” value [10] was “the amount of mRNA increased further”, the “phosphorylated AKT (p-AKT)” value [11] was “phosphorylation was found to be increased” and the “proliferation of HHFDPC (absorbance at 540 nm, MTT)” value [12] was “proliferation of HHFDPC was promoted depending on the concentration of the treated peptide”.
